Experimental data taken from patent US20110124574A1, “RESTORATION OF ESTROGEN RECEPTOR-(ALPHA) ACTIVITY” (priority 2008, published 2011).
Where no end group is shown, it is not given here. The star is where a group is joined. For = O=C*

B1: recombinant Wnt-3a: recombinant Wnt-3a protein (R&D Systems), specificity control (protein, UniProt P56704 19-352, looked up)
Protein Wnt-3a: SYPIWWSLAVGPQYSSLGSQPILCASIPGLVPKQLRFCRNYVEIMPSVAEGIKIGIQECQHQFRGRRWNCTTVHDSLAIFGPVLDKATRESAFVHAIASAGVAFAVTRSCAEGTAAICGCSSRHQGSPGKGWKWGGCSEDIEFGGMVSREFADARENRPDARSAMNRHNNEAGRQAIASHMHLKCKCHGLSGSCEVKTCWWSQPDFRAIGDFLKDKYDSASEMVVEKHRESRGWVETLRPRYTYFKVPTERDLVYYEASPNFCEPNPETGSFGTRDRTCNVSSHGIDGCDLLCCGRGHNARAERRREKCRCVFHWCCYVSCQECTRVYDVHTCK

Tested on: ERα
Test: ERα protein expression by Western blot in stimulated MDA-MB-231 cells
Format: cell-based, human
Conditions: stimulation 24 and 48 hours, rWnt-5a 0.6 μg/ml, rWnt-3a 0.1 μg/ml, peptides 100 μM
Description: Breast cancer cells were grown in 6 well plates, and stimulated with recombinant Wnt-5a protein (rW5a), the Wnt-5a derived Foxy-5 peptide (F5), recombinant Wnt-3a protein (rW3a), or a formylated random hexapeptide (Rdm) for 24 or 48 h. Following treatment cells were lysed and subjected to SDS-PAGE, transferred to nitrocellulose membranes and blotted for ERα expression. A: MDA-MB-231 cells stimulated with recombinant Wnt-5a, Foxy-5, Wnt-3a, Rdm. B: MDA-MB-468 cells stimulated with recombinant Wnt-5a or Foxy-5. C: 4T1 cells stimulated with recombinant Wnt-5a or Foxy-5. Positive controls (Pos) were included in order to confirm the correct band size for ERα. Two different positive controls were used: T47D cell lysates known to express ERα and MDA-MB-231 cells transiently transfected with a full length ERα plasmid, resulting in extremely high ERα expression (top row, right panel, third row, right panel).
Stimulation of cells was performed with recombinant Wnt-5a (0.6 μg/ml) and recombinant Wnt-3a (0.1 μg/ml and in a control experiment, 0.6 μg/ml) (R&D Systems Abington, UK) for times as indicated. The Wnt-5a derived formylated hexapeptide, Foxy-5 (formyl-MDGCEL) (SEQ. ID. NO. 1) designed in the laboratory of the inventors, and a formylated random hexapeptide (formyl-MSADVG) (SEQ: ID: NO: 16) were either synthesized by Pepscan Presto (Lelystad, The Netherlands) or Inbiolabs (Tallinn, Estonia). The peptides were purified by RP-HPLC and mass spectrometry, and the >95% pure peptides were synthesized three times. Cells were treated with Foxy-5 or random peptide at a concentration of 100 μM for times as indicated. All other chemicals if not otherwise stated were purchased from Sigma Chemicals (St. Louis, Mo.).
Cells were lysed in Triton lysis buffer (50 mM Tris (pH7.5), 1% Triton x-100, 140 mM NaCl, 0.5 mM EDTA, 0.5 MgCl2, 10 mM NaF) with the addition of fresh leupeptin (1 μg/ml), Pefabloc (2 mM), aprotinin (20 μg/ml) and Na3VO4 (4 mM). […] Scanning and densitometry was performed using a Bio-Rad (Hercules Calif.) GS-800 densitometer with Quantity One software. […]

| Molecule | levels of ERα protein |
| --- | --- |
| For-MSADVG [formylated random hexapeptide, reference compound] | Neither of these stimulations resulted in increased levels |
| B1 | Neither of these stimulations resulted in increased levels |
